Experimental data published in patent US8106055B2, “Substituted amide compounds” (Gruenenthal GmbH, priority 2007, dated 2012).

Experiments:
[1] = target: T1, bradykinin 1 receptor (B1R) of the rat (Rattus norvegicus, UniProt P97583); assay: Functional investigation on the rat bradykinin 1 receptor (B1R), Ca2+ FLIPR assay in CHO K1 rB1R cells; assay type: cell-based; settings: test substance 10 μM, Ca2+ FLIPR, CHO K1 rB1R cells; for B1R Ant. r [10 μM] % Inhibition: B1R antagonism rat; for inhibition at 10 µM: CHO-K1, B1R antagonism rat, read-out: B1R Ant. r [10 μM] % Inhibition
T1 construct: expressed in transfected cells; host or cells: CHO K1 cells
T1 sequence (P97583 1-337): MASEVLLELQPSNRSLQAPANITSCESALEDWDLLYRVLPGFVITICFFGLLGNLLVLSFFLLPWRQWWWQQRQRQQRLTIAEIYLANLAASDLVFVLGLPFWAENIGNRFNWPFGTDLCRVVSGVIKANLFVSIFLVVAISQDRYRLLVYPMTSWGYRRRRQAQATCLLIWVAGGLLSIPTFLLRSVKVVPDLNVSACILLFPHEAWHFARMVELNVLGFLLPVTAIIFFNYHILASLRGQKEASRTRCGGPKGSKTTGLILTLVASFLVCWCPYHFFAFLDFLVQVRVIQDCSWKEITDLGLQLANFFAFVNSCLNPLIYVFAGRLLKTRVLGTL
How it was run: (§1)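 Cells were dye-loaded with Fluo-4 plus probenecid, then test substances added and Ca2+ influx compared with agonist control for % activation. After 10-20 min, EC80 agonist (Lys-Des-Arg9-bradykinin human; Des-Arg9-bradykinin rat) was applied; suppression gave % inhibition and IC50 values.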

[2] = target: T2, human bradykinin 1 receptor (B1R) (Homo sapiens, UniProt P46663); assay: Functional investigation on the human bradykinin 1 receptor (B1R), Ca2+ FLIPR assay in CHO K1 hB1R cells; assay type: cell-based; settings: test substance 10 μM, Ca2+ FLIPR, CHO K1 hB1R cells; for B1R Ant. h [10 μM] % Inhibition: B1R antagonism human; for inhibition at 10 µM: CHO-K1, B1R antagonism human, read-out: B1R Ant. h [10 μM] % Inhibition
T2 construct: expressed in transfected cells; host or cells: CHO K1 cells
T2 sequence (P46663 1-353): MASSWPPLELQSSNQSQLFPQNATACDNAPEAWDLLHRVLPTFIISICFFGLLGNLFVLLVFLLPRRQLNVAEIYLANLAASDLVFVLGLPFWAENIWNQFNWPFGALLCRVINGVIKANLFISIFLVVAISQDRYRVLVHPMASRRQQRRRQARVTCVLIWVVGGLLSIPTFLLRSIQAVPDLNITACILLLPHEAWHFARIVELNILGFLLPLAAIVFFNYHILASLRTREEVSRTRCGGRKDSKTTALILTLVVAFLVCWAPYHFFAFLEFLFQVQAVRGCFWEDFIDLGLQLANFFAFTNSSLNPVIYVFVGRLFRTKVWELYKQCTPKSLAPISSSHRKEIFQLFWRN
How it was run: as §1

human μ opiate receptor = target: T3, human μ opiate receptor (Homo sapiens, UniProt P35372); assay: Affinity for the human μ opiate receptor ([3H]-naloxone displacement, CHO-K1 receptor membrane preparation, SPA); assay type: binding; settings: 1.5 h, Table 3, to be read in the same way as Table 1; test concentration 1 μM; read-out: μ
T3 construct: purchased PerkinElmer Life Sciences, Zaventem, Belgium RB-HOM; host or cells: CHO-K1 cells (membrane preparation)
T3 sequence (P35372 whole entry): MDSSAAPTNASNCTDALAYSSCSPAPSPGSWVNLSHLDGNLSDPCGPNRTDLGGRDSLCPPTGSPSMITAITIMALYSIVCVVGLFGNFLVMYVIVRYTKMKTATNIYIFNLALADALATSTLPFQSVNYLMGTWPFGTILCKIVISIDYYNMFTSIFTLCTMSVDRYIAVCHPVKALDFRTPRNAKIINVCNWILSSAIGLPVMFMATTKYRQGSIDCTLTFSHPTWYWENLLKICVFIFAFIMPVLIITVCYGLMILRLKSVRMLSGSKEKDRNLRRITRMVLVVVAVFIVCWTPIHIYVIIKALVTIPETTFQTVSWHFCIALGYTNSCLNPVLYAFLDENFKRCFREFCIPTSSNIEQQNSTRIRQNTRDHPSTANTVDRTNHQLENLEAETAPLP
Procedure: Binding data of the compounds on the μ opioid receptor and data on the inhibition of reuptake of serotonin (5-HT) are given in Table 1. The data for the μ receptor were measured at a test concentration of 1 μM, and those for the serotonin reuptake at 10 μM. The values are stated in % inhibition.
Investigation of the Activity of the Compounds of the Invention Method for Determining the Affinity for the Human μ Opiate Receptor
The receptor affinity for the human p opiate receptor is determined in a homogeneous set-up in microtitre plates. For this, dilution series of the substances to be tested are incubated with a receptor membrane preparation (15-40 μg of protein/250 μl of incubation batch) of CHO-K1 cells which express the human p opiate receptor (RB-HOM receptor membrane preparation from PerkinElmer Life Sciences, Zaventem, Belgium) in the presence of 1 nmol/l of the radioactive ligand [^3H]-naloxone (NET719, PerkinElmer Life Sciences, Zaventem, Belgium) and 1 mg of WGA-SPA-Beads (wheat germ agglutinin SPA beads from Amersham/Pharmacia, Freiburg, Germany) in a total volume of 250 μl for 90 minutes at room temperature. 50 mmol/l of Tris-HCl supplemented with 0.06% of bovine serum albumin is used as the incubation buffer. 100 μmol/l of naloxone are additionally added for determination of the non-specific binding. After the end of the ninety-minute incubation time, the microtitre plates are centrifuged for 20 minutes at 1,000 g and the radioactivity is measured in a β-counter (Microbeta-Trilux, PerkinElmer Wallac, Freiburg, Germany). The percentage displacement of the radioactive ligand from its binding to the human p opiate receptor is determined at a concentration of the test substances of 1 μmol/l and stated as the percentage inhibition of the specific binding. Starting from the percentage displacement by various concentrations of the test substances, IC50 inhibitory concentrations which cause a 50 percent displacement of the radioactive ligand are calculated. By conversion by means of the Cheng-Prusoff relationship, Ki values for the test substances are obtained.

CN(CCOCC(=O)NC1CCC(C(c2ccccc2)N2CCCC2)CC1)S(=O)(=O)c1c(Cl)cc(Cl)cc1Cl (stereo not drawn) [Example 625, N-(4-(phenyl(pyrrolidin-1-yl)methyl)cyclohexyl)-2-(2-(2,4,6-trichloro-N-methylphenylsulfonamido)ethoxy)acetamide]
B1R Ant. r [10 μM] % Inhibition [1]: 57% | B1R Ant. h [10 μM] % Inhibition [2]: 100% | inhibition at 1 µM (human μ opiate receptor): 72%

CN(CCOCC(=O)NCC1CCC(C(c2ccccc2)N2CCCC2)CC1)S(=O)(=O)c1c(Cl)cc(Cl)cc1Cl (stereo not drawn) [Example 626, N-((4-(phenyl(pyrrolidin-1-yl)methyl)cyclohexyl)methyl)-2-(2-(2,4,6-trichloro-N-methylphenylsulfonamido)ethoxy)acetamide]
inhibition at 10 µM [1]: 47% | inhibition at 10 µM [2]: 105% | inhibition at 1 µM (human μ opiate receptor): 71%

CN(CCOCC(=O)NC1CCC(C(c2ccccc2)N2CCCC2)CC1)S(=O)(=O)c1ccc(Cl)cc1Cl (stereo not drawn) [Example 627, 2-(2-(2,4-dichloro-N-methylphenylsulfonamido)ethoxy)-N-(4-(phenyl(pyrrolidin-1-yl)methyl)cyclohexyl)acetamide]
inhibition at 10 µM [1]: 35% | inhibition at 10 µM [2]: 75% | inhibition at 1 µM (human μ opiate receptor): 69%

COc1cc(C)c(S(=O)(=O)N(C)CCOCC(=O)NC2CCC(C(c3ccccc3)N3CCCC3)CC2)c(C)c1 (stereo not drawn) [Example 628, 2-(2-(4-methoxy-N,2,6-trimethylphenylsulfonamido)ethoxy)-N-(4-(phenyl(pyrrolidin-1-yl)methyl)cyclohexyl)acetamide]
inhibition at 10 µM [1]: 89% | inhibition at 10 µM [2]: 105% | inhibition at 1 µM (human μ opiate receptor): 36%

COc1cc(C)c(S(=O)(=O)N2CCC(OCC(=O)NC3CCC(C(c4ccccc4)N4CCCC4)CC3)C2)c(C)c1 (stereo not drawn) [Example 629, 2-(1-(4-methoxy-2,6-dimethylphenylsulfonyl)pyrrolidin-3-yloxy)-N-(4-(phenyl(pyrrolidin-1-yl)methyl)cyclohexyl)acetamide]
inhibition at 10 µM [1]: 67% | inhibition at 10 µM [2]: 96% | inhibition at 1 µM (human μ opiate receptor): 37%

CN(CCOCC(=O)NC1CCC(C(c2ccccc2)N2CCCC2)CC1)S(=O)(=O)c1c(Cl)cc(C(F)(F)F)cc1Cl (stereo not drawn) [Example 630, 2-(2-(2,6-dichloro-N-methyl-4-(trifluoromethyl)phenylsulfonamido)ethoxy)-N-(4-(phenyl(pyrrolidin-1-yl)methyl)cyclohexyl)acetamide]
inhibition at 10 µM [1]: -11% | inhibition at 10 µM [2]: 50% | inhibition at 1 µM (human μ opiate receptor): 72%

O=C(COC1CCCN(S(=O)(=O)c2c(Cl)cc(Cl)cc2Cl)C1)NC1CCC(C(c2ccccc2)N2CCCC2)CC1 (stereo not drawn) [Example 631, N-(4-(phenyl(pyrrolidin-1-yl)methyl)cyclohexyl)-2-(1-(2,4,6-trichlorophenylsulfonyl)piperidin-3-yloxy)acetamide]
inhibition at 10 µM [1]: 87% | inhibition at 10 µM [2]: 92% | inhibition at 1 µM (human μ opiate receptor): 88%

COc1cc(C)c(S(=O)(=O)N2CCCC2COCC(=O)NC2CCC(C(c3ccccc3)N3CCCC3)CC2)c(C)c1 (stereo not drawn) [Example 632, 2-((1-(4-methoxy-2,6-dimethylphenylsulfonyl)pyrrolidin-2-yl)methoxy)-N-(4-(phenyl(pyrrolidin-1-yl)methyl)cyclohexyl)acetamide]
inhibition at 10 µM [1]: 75% | inhibition at 10 µM [2]: 105% | inhibition at 1 µM (human μ opiate receptor): 68%

O=C(COCC1CCCN(S(=O)(=O)c2c(Cl)cc(Cl)cc2Cl)C1)NC1CCC(C(c2ccccc2)N2CCCC2)CC1 (stereo not drawn) [Example 633, N-(4-(phenyl(pyrrolidin-1-yl)methyl)cyclohexyl)-2-((1-(2,4,6-trichlorophenylsulfonyl)piperidin-3-yl)methoxy)acetamide]
inhibition at 10 µM [1]: 63% | inhibition at 10 µM [2]: 55% | inhibition at 1 µM (human μ opiate receptor): 91%

CN(CCOCC(=O)NC1CCC(C(c2ccccc2)N2CCCC2)CC1)S(=O)(=O)c1c(Cl)cccc1Cl (stereo not drawn) [Example 634, 2-(2-(2,6-dichloro-N-methylphenylsulfonamido)ethoxy)-N-(4-(phenyl(pyrrolidin-1-yl)methyl)cyclohexyl)acetamide]
inhibition at 10 µM [1]: 38% | inhibition at 10 µM [2]: 92% | inhibition at 1 µM (human μ opiate receptor): 68%

O=C(COC1CCN(S(=O)(=O)c2c(Cl)cc(Cl)cc2Cl)C1)NC1CCC(C(c2ccccc2)N2CCCC2)CC1 (stereo not drawn) [Example 635, N-(4-(phenyl(pyrrolidin-1-yl)methyl)cyclohexyl)-2-(1-(2,4,6-trichlorophenylsulfonyl)pyrrolidin-3-yloxy)acetamide]
inhibition at 10 µM [1]: 22% | inhibition at 10 µM [2]: 67% | inhibition at 1 µM (human μ opiate receptor): 78%

CN(CCOCC(=O)NC1CCC(C(CCc2ccccc2)N2CCOCC2)CC1)S(=O)(=O)c1c(Cl)cc(Cl)cc1Cl (stereo not drawn) [Example 636, N-(4-(1-morpholino-3-phenylpropyl)cyclohexyl)-2-(2-(2,4,6-trichloro-N-methylphenylsulfonamido)ethoxy)acetamide]
inhibition at 10 µM [1]: 16% | inhibition at 10 µM [2]: 41% | inhibition at 1 µM (human μ opiate receptor): 8%

CN(CCOCC(=O)NC1CCC(C(CCc2ccccc2)N2CCCCC2)CC1)S(=O)(=O)c1c(Cl)cc(Cl)cc1Cl (stereo not drawn) [Example 637, N-(4-(3-phenyl-1-(piperidin-1-yl)propyl)cyclohexyl)-2-(2-(2,4,6-trichloro-N-methylphenylsulfonamido)ethoxy)acetamide]
inhibition at 10 µM [1]: 45% | inhibition at 10 µM [2]: 85% | inhibition at 1 µM (human μ opiate receptor): 35%

CN(CCOCC(=O)NC1CCC(C(c2ccccc2)N2CCOCC2)CC1)S(=O)(=O)c1c(Cl)cc(Cl)cc1Cl (stereo not drawn) [Example 638, N-(4-(morpholino(phenyl)methyl)cyclohexyl)-2-(2-(2,4,6-trichloro-N-methylphenylsulfonamido)ethoxy)acetamide]
B1R Ant. r [10 μM] % Inhibition [1]: 21% | B1R Ant. h [10 μM] % Inhibition [2]: 37% | inhibition at 1 µM (human μ opiate receptor): 2%

CN(CCOCC(=O)NCC1CCC(C(c2ccccc2)N2CCOCC2)CC1)S(=O)(=O)c1c(Cl)cc(Cl)cc1Cl (stereo not drawn) [Example 639, N-((4-(morpholino(phenyl)methyl)cyclohexyl)methyl)-2-(2-(2,4,6-trichloro-N-methylphenylsulfonamido)ethoxy)acetamide]
inhibition at 10 µM [1]: 41% | inhibition at 10 µM [2]: 53% | inhibition at 1 µM (human μ opiate receptor): 3%

CN(CCOCC(=O)NCC1CCC(C(CCc2ccccc2)N2CCCC2)CC1)S(=O)(=O)c1c(Cl)cc(Cl)cc1Cl (stereo not drawn) [Example 640, N-((4-(3-phenyl-1-(pyrrolidin-1-yl)propyl)cyclohexyl)methyl)-2-(2-(2,4,6-trichloro-N-methylphenylsulfonamido)ethoxy)acetamide]
inhibition at 10 µM [1]: 63% | inhibition at 10 µM [2]: 101% | inhibition at 1 µM (human μ opiate receptor): 27%

CN(CCOCC(=O)NCC1CCC(C(c2ccccc2)N2CCCC2)CC1)S(=O)(=O)c1ccc(Cl)cc1Cl (stereo not drawn) [Example 641, 2-(2-(2,4-dichloro-N-methylphenylsulfonamido)ethoxy)-N-((4-(phenyl(pyrrolidin-1-yl)methyl)cyclohexyl)methyl)acetamide]
inhibition at 10 µM [1]: 45% | inhibition at 10 µM [2]: 96% | inhibition at 1 µM (human μ opiate receptor): 66%
